Test systems include MDA-MB-231 breast; OVCAR-8 ovarian; BT-549 breast; HOP-92 NSCLC; NCI-H23 lung; U251 CNS; SNB-75 CNS; SN12C renal; ACHN renal; LOX IMVI melanoma; HCT-116 colon; SK-OV-3 ovarian; NCI/ADR-RES ovarian; CCRF-CEM leukemia; EKVX NSCLC; NCI-H460 lung; RPMI-8226 leukemia.
Common to all, as to assay: inhibition of tumour cell growth, NCI panel, 48 h

Experimental findings from PubChem BioAssay (NCI) are described below.

Molecules are shown by their SMILES.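 A five-concentration, 48-hour dose response in 96-well plates underlies each endpoint, interpolated linearly between surrounding concentrations. At the TGI there is no net growth.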

On to `NC(=O)NC(=O)CCC(NS(=O)(=O)c1ccccc1)C(=O)NC(N)=O` (stereo unspecified), for which the TGI in the test with MDA-MB-231 breast, in the test on OVCAR-8 ovarian, with BT-549 breast, in the test with HOP-92 NSCLC, in the test on NCI-H23 lung and in the test on U251 CNS was greater than 100 µM throughout. Moreover, the TGI in the test with SNB-75 CNS, in the test with SN12C renal, in the test with ACHN renal, in the test with LOX IMVI melanoma, in the test on HCT-116 colon and in the test with SK-OV-3 ovarian was greater than 100 µM throughout. In addition, the TGI in the test with NCI/ADR-RES ovarian, in the test on CCRF-CEM leukemia, in the test with EKVX NSCLC and in the test with NCI-H460 lung was greater than 100 µM in each case.
`O=C(Nc1cc2c(=O)[nH]c3ccccc3c2oc1=O)c1cnccn1`: the TGI with MDA-MB-231 breast, with OVCAR-8 ovarian, in the test with BT-549 breast, in the test with HOP-92 NSCLC, in the test on NCI-H23 lung and with U251 CNS was greater than 100 µM in each case. The TGI in the test with SNB-75 CNS, in the test on SN12C renal, in the test with ACHN renal, in the test on LOX IMVI melanoma, with HCT-116 colon and in the test with SK-OV-3 ovarian was greater than 100 µM each time. For the same molecule, the TGI in the test with NCI/ADR-RES ovarian, with CCRF-CEM leukemia, with EKVX NSCLC and with NCI-H460 lung was greater than 100 µM each time.
For `CCN(CC)C(=S)SNc1ccc(S(N)(=O)=O)cc1`, the TGI in the test on MDA-MB-231 breast is greater than 100 µM; in the test with OVCAR-8 ovarian, 66 µM; with BT-549 breast it was greater than 100 µM; with HOP-92 NSCLC, greater than 100 µM; in the test with NCI-H23 lung, greater than 100 µM; with U251 CNS it was greater than 100 µM. The TGI with SNB-75 CNS, in the test on SN12C renal, in the test with ACHN renal, in the test with LOX IMVI melanoma, in the test with HCT-116 colon and with SK-OV-3 ovarian was greater than 100 µM throughout. The TGI in the test with NCI/ADR-RES ovarian is greater than 100 µM; with RPMI-8226 leukemia, greater than 78.9 µM; in the test with EKVX NSCLC, greater than 100 µM; in the test with NCI-H460 lung, greater than 100 µM.
With `CC1C(=NO)C(C)C(c2ccccc2)N(N=O)C1c1ccccc1` (stereo unspecified), the TGI in the test with MDA-MB-231 breast worked out at 32.9 µM; in the test on OVCAR-8 ovarian, 41.5 µM; in the test on BT-549 breast, 89.8 µM; in the test on HOP-92 NSCLC, 49.3 µM; in the test with NCI-H23 lung it was 77.1 µM; in the test with U251 CNS it was 35.4 µM. For the same molecule, the TGI was 82 µM with SNB-75 CNS; 28.8 µM with SN12C renal; 45.7 µM in the test on ACHN renal; 29.3 µM with LOX IMVI melanoma; 33.3 µM with HCT-116 colon; 22.7 µM in the test with SK-OV-3 ovarian. The TGI in the test on NCI/ADR-RES ovarian is 37 µM; in the test with CCRF-CEM leukemia, 84.5 µM; in the test on EKVX NSCLC it was 81.8 µM; in the test with NCI-H460 lung, 32.1 µM.
On to `C=CCOc1ccc(/C(N=Nc2ccc(C)cc2)=N/NC(=O)c2ccccc2)cc1OC`, for which the TGI with MDA-MB-231 breast was greater than 100 µM; with OVCAR-8 ovarian, 91.4 µM; in the test with BT-549 breast, 47.1 µM; in the test on HOP-92 NSCLC, 41.8 µM; with NCI-H23 lung it was 69.1 µM; with U251 CNS, greater than 100 µM. Further, the TGI in the test on SNB-75 CNS is 65.6 µM; in the test on SN12C renal it was greater than 100 µM; with ACHN renal, greater than 100 µM; in the test with LOX IMVI melanoma it was 41.5 µM; with HCT-116 colon it was 82.6 µM; in the test with NCI/ADR-RES ovarian it was greater than 100 µM. Moreover, the TGI is 41.1 µM with CCRF-CEM leukemia, greater than 100 µM with EKVX NSCLC and 48 µM in the test on NCI-H460 lung.
For `Cc1ccc(-c2cc(-c3ccc(Cl)cc3)nc(/N=C3\C(=O)N(CN4CCOCC4)c4ccccc43)n2)cc1`, the TGI in the test on MDA-MB-231 breast was greater than 100 µM; in the test with OVCAR-8 ovarian it was 50.8 µM; in the test on BT-549 breast, 88.5 µM; in the test on HOP-92 NSCLC it was 62.7 µM; in the test with NCI-H23 lung, 46 µM; with U251 CNS, 77 µM. The TGI in the test on SNB-75 CNS is 70.2 µM; in the test with SN12C renal, greater than 100 µM; with ACHN renal, 63.8 µM; with LOX IMVI melanoma, 50.5 µM; with HCT-116 colon, 93.9 µM; in the test with SK-OV-3 ovarian, greater than 100 µM. Besides, the TGI in the test on NCI/ADR-RES ovarian is greater than 100 µM; in the test with CCRF-CEM leukemia, 88.2 µM; in the test with EKVX NSCLC, greater than 100 µM; in the test with NCI-H460 lung it was 50.8 µM.
Regarding `CC(=O)OCC1OC(n2c(C#N)cc(=O)[nH]c2=O)CC1OC(C)=O` (stereo unspecified), the TGI in the test on MDA-MB-231 breast, with OVCAR-8 ovarian, in the test with BT-549 breast, in the test on HOP-92 NSCLC, in the test on NCI-H23 lung and in the test on U251 CNS was greater than 100 µM in each case. The TGI in the test with SNB-75 CNS, in the test on SN12C renal, in the test with ACHN renal, in the test with LOX IMVI melanoma, with HCT-116 colon and with SK-OV-3 ovarian was greater than 100 µM throughout. The TGI in the test on NCI/ADR-RES ovarian, in the test with CCRF-CEM leukemia, with EKVX NSCLC and in the test with NCI-H460 lung was greater than 100 µM each time.
